Data: the supplement of paper PMC10307832

Columns and labels:
Experiment in all cases: relative viability (nuclei count vs DMSO), 5 days (fraction); higher = more cells survive
Erlotinib + Pemetrexed = compound: C#Cc1cccc(Nc2ncnc3cc(OCCOC)c(OCCOC)cc23)c1 [Erlotinib] + Nc1nc2[nH]cc(CCc3ccc(C(=O)N[C@@H](CCC(=O)O)C(=O)O)cc3)c2c(=O)[nH]1 [Pemetrexed] (partner 0.2 µM)
How it was run: (§1)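 Lung cancer cell lines were pin-tool dosed in 1536-well plates on the day after seeding, with either a lone drug or a fixed anchor-drug dose plus five library-drug doses (not always all listed) in √10 steps. Nuclei were counted on 4× images after 5 days. Relative viability is the ratio of treated-well to vehicle-well nuclei counts, with each value a median of duplicate plates.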

AT9283 + Bortezomib = compound: O=C(Nc1c[nH]nc1-c1nc2ccc(CN3CCOCC3)cc2[nH]1)NC1CC1 [AT9283] + CC(C)C[C@H](NC(=O)[C@H](Cc1ccccc1)NC(=O)c1cnccn1)B(O)O [Bortezomib] (partner 0.002 µM)
How it was run: as §1

Erlotinib + Foretinib = compound: C#Cc1cccc(Nc2ncnc3cc(OCCOC)c(OCCOC)cc23)c1 [Erlotinib] + COc1cc2c(Oc3ccc(NC(=O)C4(C(=O)Nc5ccc(F)cc5)CC4)cc3F)ccnc2cc1OCCCN1CCOCC1 [Foretinib] (partner 0.25 µM)
How it was run: as §1

AT9283 + Tozasertib = compound: O=C(Nc1c[nH]nc1-c1nc2ccc(CN3CCOCC3)cc2[nH]1)NC1CC1 [AT9283] + Cc1cc(Nc2cc(N3CCN(C)CC3)nc(Sc3ccc(NC(=O)C4CC4)cc3)n2)n[nH]1 [Tozasertib] (partner 0.1 µM)
How it was run: as §1

Erlotinib + Palbociclib = compound: C#Cc1cccc(Nc2ncnc3cc(OCCOC)c(OCCOC)cc23)c1 [Erlotinib] + CC(=O)c1c(C)c2cnc(Nc3ccc(N4CCNCC4)cn3)nc2n(C2CCCC2)c1=O [Palbociclib] (partner 0.5 µM)
How it was run: as §1

Cell Line | relative viability (Erlotinib + Pemetrexed; first compound 0.02 µM) | relative viability (Erlotinib + Pemetrexed; first compound 0.2 µM) | relative viability (Erlotinib + Pemetrexed; first compound 0.6325 µM) | relative viability (Erlotinib + Pemetrexed; first compound 2 µM) | relative viability (AT9283 + Bortezomib; first compound 0.003 µM) | relative viability (AT9283 + Bortezomib; first compound 0.03 µM) | relative viability (AT9283 + Bortezomib; first compound 0.09487 µM) | relative viability (AT9283 + Bortezomib; first compound 0.3 µM) | relative viability (Erlotinib + Foretinib; first compound 0.02 µM) | relative viability (Erlotinib + Foretinib; first compound 0.6325 µM) | relative viability (Erlotinib + Foretinib; first compound 2 µM) | relative viability (AT9283 + Tozasertib; first compound 0.003 µM) | relative viability (AT9283 + Tozasertib; first compound 0.03 µM) | relative viability (AT9283 + Tozasertib; first compound 0.09487 µM) | relative viability (AT9283 + Tozasertib; first compound 0.3 µM) | relative viability (Erlotinib + Palbociclib; first compound 0.02 µM) | relative viability (Erlotinib + Palbociclib; first compound 0.2 µM) | relative viability (Erlotinib + Palbociclib; first compound 0.6325 µM) | relative viability (Erlotinib + Palbociclib; first compound 2 µM) | relative viability (Erlotinib + Foretinib; first compound 0.2 µM)
NCI-H23 | 0.774 | 0.575 | 0.747 | 0.523 | 0.852 | 1.01 | 0.557 | 0.236 | 0.909 | 1.24 | 0.631 | 0.413 | 0.603 | 0.276 | 0.285 | 0.571 | 0.447 | 0.453 | 0.509 | –
NCI-H322M | 0.604 | 0.548 | 0.521 | 0.507 | 1.25 | 1.34 | 0.861 | 0.407 | 0.925 | 0.565 | 0.45 | 0.499 | 0.511 | 0.395 | 0.443 | 0.401 | 0.431 | 0.378 | 0.426 | 0.619
NCI-H460 | 0.0628 | 0.0521 | 0.0611 | 0.0588 | 0.922 | 0.905 | 0.257 | 0.032 | 0.973 | – | 0.968 | 0.388 | 0.198 | 0.0277 | 0.0528 | 0.257 | 0.14 | 0.198 | 0.183 | 1.02
NCI-H520 | 0.847 | 0.749 | – | 0.609 | 0.574 | 0.241 | 0.182 | 0.168 | 0.803 | 0.749 | 0.745 | 0.48 | 0.435 | 0.423 | 0.251 | 0.202 | 0.223 | 0.272 | 0.311 | 0.926
